From patent US4918067A, “Heterocyclic substituted penicillin antibiotics” (Beecham Group p.l.c., priority 1986, dated 1990)

Assays:
Type in all cases: cell-based
H. influenzae Ql = experiment: in vitro MIC against H. influenzae Ql; conditions: Haemophilus influenzae
Method: (§1) The compound of the Example was tested in vitro against a number of microorganisms.

H. influenzae NEMCl = experiment: in vitro MIC against H. influenzae NEMCl; conditions: Haemophilus influenzae
Method: as §1

E. Coli ESS = experiment: in vitro MIC against E. Coli ESS; conditions: Escherichia coli
Method: as §1

B. catarrhalis Ravasio = experiment: in vitro MIC against B. catarrhalis Ravasio; conditions: Moraxella catarrhalis
Method: as §1

S. aureus Oxford = experiment: in vitro MIC against S. aureus Oxford; conditions: Staphylococcus aureus
Method: as §1

S. aureus Russell = experiment: in vitro MIC against S. aureus Russell; conditions: Staphylococcus aureus
Method: as §1

S. aureus MB9 = experiment: in vitro MIC against S. aureus MB9; conditions: Staphylococcus aureus
Method: as §1

S. epidermidis PHLN20 = experiment: in vitro MIC against S. epidermidis PHLN20; conditions: Staphylococcus epidermidis
Method: as §1

S. pyogenes CN10 = experiment: in vitro MIC against S. pyogenes CN10; conditions: Streptococcus pyogenes
Method: as §1

S. agalacticae 2798 = experiment: in vitro MIC against S. agalacticae 2798
Method: as §1

S. pneumoniae 1761 = experiment: in vitro MIC against S. pneumoniae 1761; conditions: Streptococcus pneumoniae
Method: as §1

`CC1(C)S[C@@H]2[C@H](NC(=O)/C(=N\OC3CCCCC3)c3cccc(N)n3)C(=O)N2[C@H]1C(=O)O` [Example 1, Sodium 6-β-[2-(2-aminopyridin-6-yl) 2-(Z)-cyclohexyl-oxiyminoacetamido]penicillinate] gave an MIC (H. influenzae Ql) of 1 µg/mL, an MIC (H. influenzae NEMCl) of 1 µg/mL and an MIC (E. Coli ESS) of 0.12 µg/mL. For the same compound, the MIC (B. catarrhalis Ravasio) was 0.5 µg/mL, the MIC (S. aureus Oxford) was 0.5 µg/mL and the MIC (S. aureus Russell) was 0.5 µg/mL. The MIC (S. aureus MB9) was 2 µg/mL, the MIC (S. epidermidis PHLN20) was 0.5 µg/mL and the MIC (S. pyogenes CN10) was less than 0.03 µg/mL. The MIC (S. agalacticae 2798) was 0.25 µg/mL and the MIC (S. pneumoniae 1761) was less than 0.03 µg/mL.
